Columns and labels:
[1] = Light stability test (illumination 4500 lx±500 lx); format: physicochemical; settings: p-Toluenesulfonate; for Purity (%): illumination 4500 lx±500 lx
Excerpt: The purity of Form A was detected at 0, 10 and 30 days, which was based to deduce to the light stability of Form A. The light stability of Form B and Form C were also deduced by this method.

[2] = test system: human ovarian cancer SKOV-3; experiment: Tumor-inhibitory effect on SKOV-3 transplanted to nude mouse; format: in vivo, BALB/cA nude mouse; settings: 100 mg/kg ig twice a day
Description: A tumor SKOV-3 in vigorous growth period was selected and cut into several uniform bits of a size of about 1.5 mm^3, which was inoculated subcutaneously to the right armpit of the BALB/cA nude mice using trocar under sterile conditions. The diameters of the transplanted tumors of nude mice were measured with a vernier caliper. The animals were grouped randomly when the tumors grew to a size of 80-100 mm^3. The tested animal group were intragastrically administrated through mouth as mentioned above once a day for 3 weeks continuously. The positive control drug MMC (Mitomycin) was intravenously administered once on the first day with a dose of 5 mg/kg. The negative control group were administered with 0.5% CMC-Na (Carboxymethyl Cellulose Sodium) with a dose of 0.2 mL/per mouse. The long axis (a) and the short axis (b) of the tumors were measured twice every week and the nude mice were weighed at the same time. According to the formula V=ab^2/2, the tumor volume (mm^3) could be calculated, based on which the relative tumor volume (RTV) was calculated (Calculation Formula: RTV=Vt/V0, wherein V0 represents the tumor volume measured at the grouping time of administration, and Vt represents the tumor volume measured each time). The relative tumor proliferation rate T/C (%) was chosen as the index to evaluate the anti-tumor activity, which can be calculated according to the following formula: T/C (%)=(TRTV/CRTV)×100
TRTV: RTV of the treated group; CRTV: RTV of the negative control group
V0 represents the tumor volume before the administration, and V21 represents the tumor volume after 3 weeks of continuous administration.
According to the experimental method mentioned above, the tumor-bearing nude mice, into which the human ovarian cancer SKOV-3, the human lung cancer Calu-3, and the human lung cancer A549 were transplanted respectively, were intragastrically administrated with Form B (100 mg/kg) of the present invention through mouth twice a day for 3 weeks continuously.
According to the experimental method mentioned above, the tumor-bearing nude mice, into which the human ovarian cancer SKQV-3, the human lung cancer Calu-3, and the human lung cancer A549 were transplanted respectively, were intragastrically administrated with Form C (100 mg/kg) of the present invention through mouth twice a day for 3 weeks continuously.

[3] = Toxicity test of long-term administration; format: in vivo; settings: SD rats, ig, 20, 50, 100, 500 or 800 mg/(kg·day), four weeks
Description: 80 healthy SD rats, male and weighed 200˜250 g, were grouped into 16 groups randomly, and were each intragastrically administered with Form A, B or C of the p-toluenesulfonate of the compound of formula (I) or a blank solvent (Five test groups with the dose of 20, 50, 100, 500 or 800 mg/(kg·day) and a solvent control group were set).

human lung cancer A549 = experiment: Tumor-inhibitory effect on A549 transplanted to nude mouse; format: in vivo, nude mice; settings: 100 mg/kg ig twice a day, 3 weeks, p-Toluenesulfonate
Description: (§1) The diameters of the transplanted tumors of nude mice were measured with a vernier caliper. The animals were grouped randomly when the tumors grew to a size of 80-100 mm^3. […] The positive control drug MMC (Mitomycin) was intravenously administered once on the first day with a dose of 5 mg/kg. The negative control group were administered with 0.5% CMC-Na (Carboxymethyl Cellulose Sodium) with a dose of 0.2 mL/per mouse. The long axis (a) and the short axis (b) of the tumors were measured twice every week and the nude mice were weighed at the same time. […] RTV=Vt/V0, wherein V0 represents the tumor volume measured at the grouping time of administration, and Vt represents the tumor volume measured each time). The relative tumor proliferation rate T/C (%) was chosen as the index to evaluate the anti-tumor activity, which can be calculated according to the following formula: T/C (%)=(TRTV/CRTV)×100 TRTV: RTV of the treated group; CRTV: RTV of the negative control group The standard for evaluating the effectiveness: […]

[4] = Drug absorption in SD rat, intragastric administration; format: in vivo, SD rat (Sprague Dawley rat); settings: ig, 30 mg/kg, plasma, p-Toluenesulfonate
Description: Intragastric administration (ig): 16 healthy SD rats, male, weighed 200˜250 g, and grouped into 4 groups randomly, were each administered intragastrically with a drug:the compound (21.68 mg/kg) prepared according to Example 1, Form A, B or C of p-toluenesulfonate of the compound (30 mg/kg). The blood samples were collected at 0.5, 1.0, 1.5, 2.0, 3.0, 5.0, 7.0, 9.0, 12 and 24 hours after administration, which were then isolated to prepare the plasma. The concentration of the drug in the plasma was determined by means of liquid chromatography/mass spectrometry, and the concentration-time curve was obtained.

[5] = Thermal stability test (storage at 60° C.); format: physicochemical; settings: p-Toluenesulfonate; for Purity (%): stored at 60° C.
Excerpt: The purity of Form A was detected at 0, 10 and 30 days, which was based to deduce the thermal stability of Form A. The thermal stability of Form B and Form C were also deduced by this method.

human lung cancer Calu-3 = experiment: Tumor-inhibitory effect on Calu-3 transplanted to nude mouse; format: in vivo, nude mice; settings: 100 mg/kg ig twice a day, 3 weeks, p-Toluenesulfonate
Description: as §1

[6] = Hygroscopicity test (high moisture environment of 92.5%); format: physicochemical; settings: p-Toluenesulfonate; for Purity (%): high moisture environment of 92.5%
Excerpt: The purity of Form A was detected at 0, 10 and 30 days, which was based to deduce the hygroscopicity of Form A. The hygroscopicities of Form B and Form C were also deduced by this method.

Compound: C=CC(=O)Nc1ccc2ncnc(Nc3ccc(OCc4cccc(F)c4)c(Cl)c3)c2c1.Cc1ccc(S(=O)(=O)O)cc1 [Form B, N-{4-[3-chloro-4-(3-fluoro-benzyloxy)phenylamino]-quinazolin-6-yl}-acrylamide p-Toluenesulfonate]
- light stability ([1]; 4500 lx±500 lx, one month, in words): excellent
- Purity (%) ([1]; detect time 0): 99.26%
- Purity (%) ([1]; detect time 10): 99.26%
- Purity (%) ([1]; detect time 30): 99.24%
- relative tumor proliferation rate T/C ([2]; SKOV-3, 3 weeks, p-Toluenesulfonate): 28.5%
- tumor inhibitory effects ([2]; summary in words for SKOV-3, Calu-3 and A549 models): significant tumor inhibitory effects
- food intake [3]: normal
- physical signs, appearance, behaviors, activities or shape of dejecta [3]: no abnormality
- weight and weight increase of the rats [3]: basically similar to the solvent control group
- relative tumor proliferation rate T/C (human lung cancer A549): 56.3%
- AUC0-t [4]: 978 ng·h/mL
- thermal stability ([5]; 60° C., one month, in words): excellent
- Purity (%) ([5]; detect time day 0): 99.26%
- Purity (%) ([5]; detect time day 10): 99.21%
- Purity (%) ([5]; detect time day 30): 99.11%
- relative tumor proliferation rate T/C (human lung cancer Calu-3): 35.1%
- stability under the environment of high moisture ([6]; 92.5% moisture, one month, in words): very stable
- Purity (%) ([6]; detect time 0): 99.26%
- Purity (%) ([6]; detect time 10): 99.25%
- Purity (%) ([6]; detect time 30): 99.24%

Reference: patent US9102629B2, “Polymorphic forms of 4-phenylamine quinazoline derivative, the preparation method and uses thereof” (priority 2008, dated 2015)
